IC50 data for 19 molecules are collected here from patent publication US20240409557A1, “5,6-FUSED AND 6,6-FUSED BICYCLIC ALCOHOLS AND ETHERS AND COMPOSITIONS FOR USE AS 15-PROSTAGLANDIN DEHYDROGENASE MODULATORS” (AMGEN INC., priority 2023, published 2024).

Assay [1] addresses T1, human recombinant 15-PGDH (Homo sapiens, UniProt P15428).
T1 sequence (P15428 1-266): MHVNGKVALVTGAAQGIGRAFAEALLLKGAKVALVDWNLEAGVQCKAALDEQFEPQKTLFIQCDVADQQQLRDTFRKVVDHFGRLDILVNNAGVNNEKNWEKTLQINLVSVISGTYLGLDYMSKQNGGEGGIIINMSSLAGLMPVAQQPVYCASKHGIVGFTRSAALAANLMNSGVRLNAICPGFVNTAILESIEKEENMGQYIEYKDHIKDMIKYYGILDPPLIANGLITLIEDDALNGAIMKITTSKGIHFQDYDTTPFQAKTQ
The experiment in a line: Recombinant 15-PGDH enzymatic inhibition assay (PGDH-Lumi, NADH signal). Format: biochemical. The conditions noted are these: recombinant 15-PGDH; 15 min pre-incubation, 60 min reaction with PGE2 and NAD+, NADH signal. Put shortly:
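Recombinant 15-PGDH pre-incubated 15 min at room temperature with compound (22 concentrations, 2-fold dilutions) in 50 mM Tris pH 7.5, 0.01% Tween-20, […].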

Assay [2] has as its target T2, 15-PGDH in A549 cells (Homo sapiens, UniProt P15428).
T2 construct: endogenous in cells; host or cells: A549
T2 sequence (P15428 1-266): T1 sequence (P15428 1-266)
The experiment in a line: A549 cellular 15-PGDH assay (PGE2 accumulation, HTRF). Format: cell-based. The conditions noted are these: interleukin-stimulated, inhibitor 24 hrs, PGE2 by competitive HTRF, read-out: A549 Cell Assay IC50. From the text:
This assay was used for the quantification of IL-13 induced Native Prostaglandin E2 (PGE2) produced by A549 cells (epithelial cells from lung carcinoma) in cell culture supernatants. […] PGE2 was detected in a competitive HTRF assay by using anti PGE2 antibody labeled with Europium cryptate, and PGE2 labeled with […]. The PGE2 present in the sample competes with the binding between the two HTRF detection solutions (reagents) and thereby prevents FRET from occurring. The specific signal is inversely proportional to the PGE2 concentration. From this binding data, IC50 values were calculated.

Consider `Cn1cc2cc(-c3ccc4cc([C@@H](O)C(F)(F)F)sc4n3)cnc2n1` (single isomer, unassigned) [Compound B23S], for which the IC50 turned out to be 121 nM in assay [1] and 19.2 nM in assay [2].

Take `CC(C)[C@@H](O)c1cc2ccc(-c3cnc4nn(C)cc4c3)nc2s1` (single isomer, unassigned) [Compound B24R]: the IC50 is 0.258 nM in assay [1] and 0.614 nM in assay [2].

With `CCC[C@@H](O)c1cc2ccc(-c3cnc4nn(C)cc4c3)nc2s1` (single isomer, unassigned) [Compound B27R], the IC50 in assay [1] worked out at 0.255 nM; in assay [2] it was 0.728 nM.

As to `CCC[C@H](O)c1cc2ccc(-c3cnc4nn(C)cc4c3)nc2s1` (single isomer, unassigned) [Compound B27S], the results for the IC50 in assay [1] and in assay [2] were 12.3 nM and 1.78 nM, respectively.

On to `Cn1cc2cc(-c3ccc4cc([C@H](O)C5COC5)sc4n3)cnc2n1` (single isomer, unassigned) [Compound B28R], for which the IC50 worked out at 0.424 nM in assay [1] and 0.16 nM in assay [2].

For the molecule `Cn1cc2cc(-c3ccc4cc([C@@H](O)C5COC5)sc4n3)cnc2n1` (single isomer, unassigned) [Compound B28S], the IC50 in assay [1] turned out to be 12.2 nM; in assay [2] it was 9.56 nM.

`COCC[C@@H](O)c1cc2ccc(-c3cnc4nn(C)cc4c3)nc2s1` (single isomer, unassigned) [Compound B29R]: the IC50 in assay [1] stood at 0.209 nM; in assay [2], 0.745 nM.

As to `COCC[C@H](O)c1cc2ccc(-c3cnc4nn(C)cc4c3)nc2s1` (single isomer, unassigned) [Compound B29S], the IC50 is 10.5 nM in assay [1] and 3.08 nM in assay [2].

In the case of `Cn1cc2cc(-c3ccc4cc([C@@H](O)C5CC(F)(F)C5)sc4n3)cnc2n1` (single isomer, unassigned) [Compound B30S], the figures for the IC50 in assay [1] and in assay [2] were 0.35 nM and 0.406 nM, respectively.

For `Cn1cc2cc(-c3ccc4cc([C@H](O)C5CCC(F)(F)CC5)sc4n3)cnc2n1` (single isomer, unassigned) [Compound B31R], the IC50 in assay [1] came to 0.203 nM; in assay [2] it was 0.53 nM.

Take `Cn1ncc2cc(-c3ccc4cc([C@H](O)C5CCOCC5)sc4n3)ccc21` (single isomer, unassigned) [Compound B34R]: the values for the IC50 in assay [1] and in assay [2] were 12.4 nM and 39.8 nM, respectively.

Consider `Cn1ncc2cc(-c3ccc4cc([C@H](O)C5CCOCC5)sc4n3)cnc21` (single isomer, unassigned) [Compound B35R], for which the IC50 in assay [1] was found to be 1.09 nM; in assay [2], 18.2 nM.

As for `O[C@@H](c1cc2ccc(-c3ccc4[nH]ncc4c3)nc2s1)C1CCOCC1` (single isomer, unassigned) [Compound B37R], the figures for the IC50 in assay [1] and in assay [2] were 8.74 nM and 61.7 nM, respectively.

Regarding `Cn1nc2cc(-c3ccc4cc([C@H](O)C5CCOCC5)sc4n3)cnc2n1` (single isomer, unassigned) [Compound B39R], the IC50 in assay [1] came to 0.423 nM; in assay [2], 2.37 nM.

For `O[C@@H](c1cc2ccc(-c3ccc4oncc4c3)nc2s1)C1CCOCC1` (single isomer, unassigned) [Compound B43R], the IC50 stood at 13.8 nM in assay [1] and 196 nM in assay [2].

Regarding `O[C@@H](c1cc2ccc(-c3cnc4[nH]nnc4c3)nc2s1)C1CCOCC1` (single isomer, unassigned) [Compound B44R], the IC50 in assay [1] worked out at 0.464 nM; in assay [2], 2.61 nM.

In the case of `Cc1nc2cc(-c3ccc4cc([C@H](O)C5CC(F)(F)C5)sc4n3)ccc2o1` (single isomer, unassigned) [Compound B46R], the IC50 in assay [1] is 0.277 nM; in assay [2], 0.697 nM.

Turning to `Cc1nc2cc(-c3ccc4cc([C@@H](O)C5CC(F)(F)C5)sc4n3)ccc2o1` (single isomer, unassigned) [Compound B46S], the IC50 in assay [1] is 2.1 nM; in assay [2], 17.4 nM.

With `O[C@@H](c1cc2ccc(-c3cnc4[nH]ncc4c3)nc2s1)C1CC(F)(F)C1` (single isomer, unassigned) [Compound B47R], the IC50 in assay [1] came out at 0.21 nM; in assay [2], 0.366 nM.
